Results from PMC8882856, “The affinity and selectivity of α‐adrenoceptor antagonists, antidepressants and antipsychotics for the human α2A, α2B, and α2C‐adrenoceptors and comparison with human α1 and β‐adrenoceptors” (Pharmacology Research & Perspectives, 2022).

These compounds were tested against human β2‐adrenoceptor (Homo sapiens, UniProt P07550) (assay: not given). Conditions: ^3H‐CGP12177 whole cell binding; log values, mean ± s.e.mean; ^app = apparent KD; 'no binding to' = log top concentration.
Sequence of human β2‐adrenoceptor (P07550 whole entry): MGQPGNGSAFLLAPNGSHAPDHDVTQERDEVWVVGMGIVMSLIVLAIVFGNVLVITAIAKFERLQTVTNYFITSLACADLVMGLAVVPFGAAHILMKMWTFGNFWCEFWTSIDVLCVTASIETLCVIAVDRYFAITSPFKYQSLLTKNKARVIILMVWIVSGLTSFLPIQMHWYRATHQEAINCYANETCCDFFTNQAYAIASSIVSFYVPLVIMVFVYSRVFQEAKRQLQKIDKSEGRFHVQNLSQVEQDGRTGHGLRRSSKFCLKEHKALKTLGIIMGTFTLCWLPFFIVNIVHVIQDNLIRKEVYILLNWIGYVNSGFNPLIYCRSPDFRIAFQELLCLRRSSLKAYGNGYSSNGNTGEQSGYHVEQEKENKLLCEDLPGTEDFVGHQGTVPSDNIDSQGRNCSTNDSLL
Format: binding

| SMILES | Log KD β2 |
| --- | --- |
| COCc1c(Cl)ccc2c1CC[C@H]2c1ncc[nH]1 [PF3774076] | No binding to −4 |
| ClCCN(Cc1ccccc1)Cc1ccccc1 [dibenamine] | −4.94 ± 0.10^app |
| COc1cc2nc(N3CCN(C(=O)C4CCCO4)CC3)nc(N)c2cc1OC (centres unmarked) [terazosin] | No binding to −4 |
| COc1ccc(C(CN(C)C)C2(O)CCCCC2)cc1 (centres unmarked) [venlafaxime] | −4.13 ± 0.13^app |

Same assay, conditions: ^3H‐CGP12177 whole cell binding; log values, mean ± s.e.mean; ^app = apparent KD; 'no binding to' = log top concentration; read-out: Log KD β2 (converted)

| SMILES | Kd |
| --- | --- |
| COc1cc2nc(N3CCN(C(=O)c4ccco4)[C@H]4CCCC[C@H]43)nc(N)c2cc1OC (racemic) [cyclazosin] | 5.01 µM |
| COc1cc2nc(N(C)CCCNC(=O)C3CCCO3)nc(N)c2cc1OC (centres unmarked) [alfuzosin] | 66.1 µM |
| CCOc1ccccc1OCCN[C@H](C)Cc1ccc(OC)c(S(N)(=O)=O)c1 [tamsulosin] | 0.832 µM |

Same assay, conditions: given as log KD (negative values); 3H-CGP12177 whole cell binding, CHO cells; mean ± s.e.mean

| SMILES | Log KD β2 |
| --- | --- |
| COCc1c(Cl)ccc2c1CC[C@H]2c1ncc[nH]1 [PF3774076] | No binding to -4 |
| COc1cc2nc(N3CCN(C(=O)C4CCCO4)CC3)nc(N)c2cc1OC (centres unmarked) [terazosin] | No binding to -4 |

Each compound was assayed against T1, human α2A‐adrenoceptor (Homo sapiens, UniProt P08913) (assay: not given). Conditions: not given.
T1 sequence (P08913 1-465): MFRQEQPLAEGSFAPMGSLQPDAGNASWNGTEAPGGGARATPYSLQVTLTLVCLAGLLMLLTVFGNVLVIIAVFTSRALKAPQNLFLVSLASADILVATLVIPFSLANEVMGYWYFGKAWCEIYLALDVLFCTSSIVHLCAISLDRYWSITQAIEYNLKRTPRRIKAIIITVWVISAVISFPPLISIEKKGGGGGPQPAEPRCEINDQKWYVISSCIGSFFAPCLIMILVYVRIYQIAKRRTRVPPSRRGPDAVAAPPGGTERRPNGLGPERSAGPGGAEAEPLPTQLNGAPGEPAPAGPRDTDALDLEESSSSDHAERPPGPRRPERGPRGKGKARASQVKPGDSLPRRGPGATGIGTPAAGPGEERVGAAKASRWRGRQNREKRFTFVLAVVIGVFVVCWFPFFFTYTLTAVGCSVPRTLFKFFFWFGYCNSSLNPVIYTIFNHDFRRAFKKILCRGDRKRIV

| SMILES | Kd |
| --- | --- |
| COCc1c(Cl)ccc2c1CC[C@H]2c1ncc[nH]1 [PF3774076] | 2.57 µM |
| ClCCN(Cc1ccccc1)Cc1ccccc1 [dibenamine] | 1.58 µM |
| COc1ccc(C(CN(C)C)C2(O)CCCCC2)cc1 (centres unmarked) [venlafaxime] | 346.7 ± 3.01 µM |

The compounds below were run against T2, human α2C‐adrenoceptor (Homo sapiens, UniProt P18825) (assay: not given). Conditions: not given.
T2 sequence (P18825 1-462): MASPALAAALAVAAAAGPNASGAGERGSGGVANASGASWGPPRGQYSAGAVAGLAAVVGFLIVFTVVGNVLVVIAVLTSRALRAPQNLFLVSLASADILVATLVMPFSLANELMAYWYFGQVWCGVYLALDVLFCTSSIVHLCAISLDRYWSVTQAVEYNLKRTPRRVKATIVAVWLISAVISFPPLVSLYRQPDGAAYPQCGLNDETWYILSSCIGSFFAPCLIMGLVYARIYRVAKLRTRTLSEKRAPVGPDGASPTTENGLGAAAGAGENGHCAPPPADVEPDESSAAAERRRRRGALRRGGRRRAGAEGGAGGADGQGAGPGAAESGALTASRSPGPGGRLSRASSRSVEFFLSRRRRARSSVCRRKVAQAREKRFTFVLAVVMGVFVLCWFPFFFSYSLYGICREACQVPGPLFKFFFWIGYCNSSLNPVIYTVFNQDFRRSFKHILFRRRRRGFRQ

| SMILES | Kd |
| --- | --- |
| COCc1c(Cl)ccc2c1CC[C@H]2c1ncc[nH]1 [PF3774076] | 5.13 µM |
| ClCCN(Cc1ccccc1)Cc1ccccc1 [dibenamine] | 0.661 µM |
| COc1ccc(C(CN(C)C)C2(O)CCCCC2)cc1 (centres unmarked) [venlafaxime] | 182 µM |

The compounds below were run against T3, human β1‐adrenoceptor (Homo sapiens, UniProt P08588) (assay: not given). Conditions: ^3H‐CGP12177 whole cell binding; log values, mean ± s.e.mean; ^app = apparent KD; 'no binding to' = log top concentration.
T3 sequence (P08588 whole entry): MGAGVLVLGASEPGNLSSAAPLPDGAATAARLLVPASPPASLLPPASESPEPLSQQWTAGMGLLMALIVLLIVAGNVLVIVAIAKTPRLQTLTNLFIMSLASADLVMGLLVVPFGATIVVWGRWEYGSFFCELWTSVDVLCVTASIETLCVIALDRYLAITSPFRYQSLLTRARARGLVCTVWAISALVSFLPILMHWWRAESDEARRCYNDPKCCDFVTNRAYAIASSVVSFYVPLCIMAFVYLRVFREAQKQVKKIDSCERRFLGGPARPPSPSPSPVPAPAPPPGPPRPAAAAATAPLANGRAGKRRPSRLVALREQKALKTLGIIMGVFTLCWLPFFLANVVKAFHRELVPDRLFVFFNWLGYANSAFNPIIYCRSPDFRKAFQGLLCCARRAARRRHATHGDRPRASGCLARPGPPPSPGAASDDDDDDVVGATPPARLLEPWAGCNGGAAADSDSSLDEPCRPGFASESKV

| SMILES | Log KD β1 |
| --- | --- |
| COc1cc2nc(N3CCN(C(=O)c4ccco4)[C@H]4CCCC[C@H]43)nc(N)c2cc1OC (racemic) [cyclazosin] | No binding to −4 |
| COCc1c(Cl)ccc2c1CC[C@H]2c1ncc[nH]1 [PF3774076] | No binding to −4 |
| COc1cc2nc(N(C)CCCNC(=O)C3CCCO3)nc(N)c2cc1OC (centres unmarked) [alfuzosin] | No binding |
| ClCCN(Cc1ccccc1)Cc1ccccc1 [dibenamine] | −4.60 ± 0.06^app |
| COc1cc2nc(N3CCN(C(=O)C4CCCO4)CC3)nc(N)c2cc1OC (centres unmarked) [terazosin] | No binding to −4 |
| COc1ccc(C(CN(C)C)C2(O)CCCCC2)cc1 (centres unmarked) [venlafaxime] | −3.80 ± 0.11^app |

Same assay, conditions: given as log KD (negative values); 3H-CGP12177 whole cell binding, CHO cells; mean ± s.e.mean

| SMILES | Log KD β1 |
| --- | --- |
| COc1cc2nc(N3CCN(C(=O)c4ccco4)[C@H]4CCCC[C@H]43)nc(N)c2cc1OC (racemic) [cyclazosin] | No binding to -4 |
| COCc1c(Cl)ccc2c1CC[C@H]2c1ncc[nH]1 [PF3774076] | No binding to -4 |
| COc1cc2nc(N(C)CCCNC(=O)C3CCCO3)nc(N)c2cc1OC (centres unmarked) [alfuzosin] | No binding to -4 |
| COc1cc2nc(N3CCN(C(=O)C4CCCO4)CC3)nc(N)c2cc1OC (centres unmarked) [terazosin] | No binding to -4 |

What follows are compounds tested against T1, human α2A‐adrenoceptor (assay: cell-based). Conditions: not given.

| SMILES | Kd |
| --- | --- |
| COc1cc2nc(N3CCN(C(=O)c4ccco4)[C@H]4CCCC[C@H]43)nc(N)c2cc1OC (racemic) [cyclazosin] | 10 µM |
| COc1cc2nc(N(C)CCCNC(=O)C3CCCO3)nc(N)c2cc1OC (centres unmarked) [alfuzosin] | 2.75 µM |
| CCOc1ccccc1OCCN[C@H](C)Cc1ccc(OC)c(S(N)(=O)=O)c1 [tamsulosin] | 0.468 µM |
| COc1cc2nc(N3CCN(C(=O)C4CCCO4)CC3)nc(N)c2cc1OC (centres unmarked) [terazosin] | 6.61 µM |

The compounds below were run against T4, human α2B‐adrenoceptor (Homo sapiens, UniProt P18089) (assay: cell-based). Conditions: not given.
T4 sequence (P18089 1-450): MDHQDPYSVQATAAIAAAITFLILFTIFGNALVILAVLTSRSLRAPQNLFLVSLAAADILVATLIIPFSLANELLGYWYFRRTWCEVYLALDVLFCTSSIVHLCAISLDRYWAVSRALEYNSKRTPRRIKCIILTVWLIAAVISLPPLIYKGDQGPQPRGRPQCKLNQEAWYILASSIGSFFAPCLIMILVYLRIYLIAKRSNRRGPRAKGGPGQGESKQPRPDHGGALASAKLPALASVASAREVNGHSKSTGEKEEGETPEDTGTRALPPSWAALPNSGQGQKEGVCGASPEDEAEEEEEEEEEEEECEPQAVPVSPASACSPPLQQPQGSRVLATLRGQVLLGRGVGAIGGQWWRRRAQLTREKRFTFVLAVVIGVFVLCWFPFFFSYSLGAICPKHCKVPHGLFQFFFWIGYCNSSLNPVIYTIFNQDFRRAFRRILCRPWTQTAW

| SMILES | Kd |
| --- | --- |
| COc1cc2nc(N3CCN(C(=O)c4ccco4)[C@H]4CCCC[C@H]43)nc(N)c2cc1OC (racemic) [cyclazosin] | 4.47 µM |

The compounds below were run against T2, human α2C‐adrenoceptor (assay: cell-based). Conditions: not given.

| SMILES | Kd |
| --- | --- |
| COc1cc2nc(N3CCN(C(=O)c4ccco4)[C@H]4CCCC[C@H]43)nc(N)c2cc1OC (racemic) [cyclazosin] | 0.661 µM |
| COc1cc2nc(N(C)CCCNC(=O)C3CCCO3)nc(N)c2cc1OC (centres unmarked) [alfuzosin] | 0.724 µM |

These compounds were tested against T3, human β1‐adrenoceptor (assay: cell-based). Conditions: not given.

| SMILES | Kd |
| --- | --- |
| CCOc1ccccc1OCCN[C@H](C)Cc1ccc(OC)c(S(N)(=O)=O)c1 [tamsulosin] | 0.55 µM |

What follows are compounds tested against T1, human α2A‐adrenoceptor (assay: ^3H‐rauwolscine whole cell competition binding, CHO‐α2A cells). Conditions: ratio of KD values.

| SMILES | Selectivity ratio α2A vs α2C (higher affinity for α2A) | Selectivity ratio α2A vs α2B (higher affinity for α2A) |
| --- | --- | --- |
| COCc1c(Cl)ccc2c1CC[C@H]2c1ncc[nH]1 [PF3774076] | 2.0 |  |
| COc1cc2nc(N(C)CCCNC(=O)C3CCCO3)nc(N)c2cc1OC (centres unmarked) [alfuzosin] |  | 8.7 |
| CCOc1ccccc1OCCN[C@H](C)Cc1ccc(OC)c(S(N)(=O)=O)c1 [tamsulosin] |  | 10.5 |

Each compound was assayed against T4, human α2B‐adrenoceptor (assay: ^3H‐rauwolscine whole cell competition binding, CHO‐α2B cells). Conditions: not given.

| SMILES | Kd |
| --- | --- |
| COc1cc2nc(N(C)CCCNC(=O)C3CCCO3)nc(N)c2cc1OC (centres unmarked) [alfuzosin] | 24 µM |
| CCOc1ccccc1OCCN[C@H](C)Cc1ccc(OC)c(S(N)(=O)=O)c1 [tamsulosin] | 4.9 µM |

Same assay, conditions: ^3H‐rauwolscine; top concentration inhibited 50% or less of specific binding; log value

| SMILES | IC50 (log) α2B, IC50>top concentration used |
| --- | --- |
| COCc1c(Cl)ccc2c1CC[C@H]2c1ncc[nH]1 [PF3774076] | IC50>−4 |

Same assay, conditions: proportion of site 1 in two-site fit

| SMILES | % site 1, α2B |
| --- | --- |
| ClCCN(Cc1ccccc1)Cc1ccccc1 [dibenamine] | 60.9 ± 3.4% |

Same assay, conditions: ratio of KD values

| SMILES | Selectivity ratio α2A vs α2B (higher affinity for α2B) | Selectivity ratio α2B vs α2C (higher affinity for α2B) |
| --- | --- | --- |
| COc1cc2nc(N3CCN(C(=O)c4ccco4)[C@H]4CCCC[C@H]43)nc(N)c2cc1OC (racemic) [cyclazosin] | 2.2 |  |
| ClCCN(Cc1ccccc1)Cc1ccccc1 [dibenamine] | 4.3 | 1.8 |

Same assay, conditions: two-component inhibition; proportion of higher affinity site

| SMILES | % site 1, α2B |
| --- | --- |
| ClCCN(Cc1ccccc1)Cc1ccccc1 [dibenamine] | 60.9 ± 3.4% |

Same assay, conditions: two‐component inhibition of ^3H‐rauwolscine binding

| SMILES | % site 1 α2B (percentage through first component) |
| --- | --- |
| ClCCN(Cc1ccccc1)Cc1ccccc1 [dibenamine] | 60.9 ± 3.4% |

Each compound was assayed against T2, human α2C‐adrenoceptor (assay: ^3H‐rauwolscine whole cell competition binding, CHO‐α2C cells). Conditions: not given.

| SMILES | Kd |
| --- | --- |
| CCOc1ccccc1OCCN[C@H](C)Cc1ccc(OC)c(S(N)(=O)=O)c1 [tamsulosin] | 0.389 µM |

Same assay, conditions: ratio of KD values

| SMILES | Selectivity ratio α2A vs α2C (higher affinity for α2C) | Selectivity ratio α2B vs α2C (higher affinity for α2C) |
| --- | --- | --- |
| COc1cc2nc(N3CCN(C(=O)c4ccco4)[C@H]4CCCC[C@H]43)nc(N)c2cc1OC (racemic) [cyclazosin] | 15.1 | 6.8 |
| COc1cc2nc(N(C)CCCNC(=O)C3CCCO3)nc(N)c2cc1OC (centres unmarked) [alfuzosin] | 3.8 | 33.1 |
| ClCCN(Cc1ccccc1)Cc1ccccc1 [dibenamine] | 2.4 |  |
| CCOc1ccccc1OCCN[C@H](C)Cc1ccc(OC)c(S(N)(=O)=O)c1 [tamsulosin] | 1.2 | 12.6 |
